One data set deals with T1, Cytochrome P450 1A2 (Homo sapiens, UniProt P05177).
T1 sequence (P05177 whole entry): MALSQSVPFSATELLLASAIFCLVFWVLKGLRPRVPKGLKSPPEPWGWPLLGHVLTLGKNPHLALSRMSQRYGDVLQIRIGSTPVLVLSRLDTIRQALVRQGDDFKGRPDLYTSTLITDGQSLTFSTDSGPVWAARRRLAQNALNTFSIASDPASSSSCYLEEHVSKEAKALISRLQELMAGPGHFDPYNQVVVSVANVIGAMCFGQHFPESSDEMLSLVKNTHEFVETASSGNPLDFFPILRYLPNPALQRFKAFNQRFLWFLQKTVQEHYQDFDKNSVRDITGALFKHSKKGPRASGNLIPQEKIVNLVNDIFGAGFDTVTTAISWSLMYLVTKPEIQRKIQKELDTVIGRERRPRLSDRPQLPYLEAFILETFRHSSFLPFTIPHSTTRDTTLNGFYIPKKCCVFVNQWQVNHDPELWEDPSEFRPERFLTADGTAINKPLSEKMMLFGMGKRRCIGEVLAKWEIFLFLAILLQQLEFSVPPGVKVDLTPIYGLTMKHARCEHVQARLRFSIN
Nature of the data set: Inhibition of CYP1A2 (unknown origin).

The nature of data set [1]: Clearance in Sprague-Dawley rat at 1 mg/kg, iv. It counts as ADME, organism-based. As to conditions: in vivo.
The target of another data set is Cytochrome P450 2C19 (Homo sapiens, UniProt P33261). Description: Inhibition of CYP2C19 (unknown origin).
The next data set addresses T2, Relaxin receptor 1 (Rattus norvegicus, UniProt Q6R6I6).
T2 sequence (Q6R6I6 whole entry): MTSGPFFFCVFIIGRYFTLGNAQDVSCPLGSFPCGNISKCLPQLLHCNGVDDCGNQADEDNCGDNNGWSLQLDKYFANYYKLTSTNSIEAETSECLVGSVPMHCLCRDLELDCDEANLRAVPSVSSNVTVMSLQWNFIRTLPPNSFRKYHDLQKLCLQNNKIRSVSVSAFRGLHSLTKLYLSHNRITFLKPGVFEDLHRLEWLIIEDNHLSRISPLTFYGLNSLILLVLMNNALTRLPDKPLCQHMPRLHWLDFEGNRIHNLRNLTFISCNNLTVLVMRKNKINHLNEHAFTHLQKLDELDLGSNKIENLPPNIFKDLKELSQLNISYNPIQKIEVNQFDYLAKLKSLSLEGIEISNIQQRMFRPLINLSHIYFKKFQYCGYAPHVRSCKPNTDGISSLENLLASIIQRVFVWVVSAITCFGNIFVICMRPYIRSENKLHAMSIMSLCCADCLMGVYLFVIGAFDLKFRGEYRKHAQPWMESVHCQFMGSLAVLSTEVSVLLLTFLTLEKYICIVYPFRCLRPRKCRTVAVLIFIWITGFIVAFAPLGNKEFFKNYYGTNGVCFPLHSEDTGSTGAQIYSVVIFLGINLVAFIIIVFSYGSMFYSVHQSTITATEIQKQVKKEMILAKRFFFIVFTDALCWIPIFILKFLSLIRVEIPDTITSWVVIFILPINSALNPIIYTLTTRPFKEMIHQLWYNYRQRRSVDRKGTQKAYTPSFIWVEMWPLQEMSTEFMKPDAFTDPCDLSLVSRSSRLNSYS
Description: Agonist activity at rat RXFP1 stably expressed in HEK293 cells assessed as intracellular cAMP accumulation incubated for 30 mins by HTRF assay. The format is cell-based. A general note: Cyclic AMP is a second messenger, typically raised through Gs and lowered through Gi signalling.

Data set [2] can be described thus: Thermodynamic aqueous solubility of compound in phosphate buffer at pH 7.4 by reversed-phase ultrahigh pressure liquid chromatography. It counts as physicochemical. As to conditions: phosphate buffer, read-out: Therm_solubility.
Data set [3] can be described thus: Microsomal stability in mouse liver microsomes assessed as half life. It counts as ADME, Microsome. (Microsomes from liver hold many membrane-bound enzymes, among them those of drug oxidation.)
Data set [4] can be described thus: Microsomal stability in rat liver microsomes assessed as half life. It counts as ADME, Microsome.
A further data set deals with Rattus norvegicus. Nature of the data set: Chronotropic effect in isoflurane-anesthetized male naive Sprague-Dawley rat model assessed as increase in heart rate at 5 mg/kg/min, iv measured after 60 mins. As to conditions: 1 h. The format is functional.
A further data set relates to Mus musculus. Nature of the data set: Expansion of interpubic ligament in estrogen-treated female C57BL/6 mouse assessed as symphysis widening at 25 mg/kg, iv administered on day 7 and measured on day 8 by microCT analysis (reference value: 17.6 %). It counts as functional. As to conditions: time 1 day.
Data set [5] in a line: Half life in Sprague-Dawley rat at 1 mg/kg, iv. The format is ADME, organism-based. As to conditions: in vivo.
The next data set has as its target Cytochrome P450 2C9 (Homo sapiens, UniProt P11712). Nature of the data set: Inhibition of CYP2C9 (unknown origin).
A short description of data set [6]: Volume of distribution at steady state in Sprague-Dawley rat at 1 mg/kg, iv. The format is ADME, organism-based. As to conditions: in vivo, read-out: Vdss.
Data set [7] addresses T3, Nuclear receptor subfamily 1 group I member 2 (Homo sapiens, UniProt O75469).
T3 sequence (O75469 whole entry): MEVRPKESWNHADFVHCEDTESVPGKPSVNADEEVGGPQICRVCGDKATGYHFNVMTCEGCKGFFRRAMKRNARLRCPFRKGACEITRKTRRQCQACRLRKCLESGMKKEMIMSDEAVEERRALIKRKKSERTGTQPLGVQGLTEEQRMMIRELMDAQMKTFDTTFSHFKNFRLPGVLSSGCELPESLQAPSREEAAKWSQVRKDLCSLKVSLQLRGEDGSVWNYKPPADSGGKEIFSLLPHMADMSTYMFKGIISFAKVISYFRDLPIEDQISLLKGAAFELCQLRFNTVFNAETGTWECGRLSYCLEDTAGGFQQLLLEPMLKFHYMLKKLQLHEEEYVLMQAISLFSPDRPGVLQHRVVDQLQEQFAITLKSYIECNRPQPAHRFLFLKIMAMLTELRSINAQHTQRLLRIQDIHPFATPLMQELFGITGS
Description: Activation of PXR (unknown origin).

In another data set the target is L-type calcium channel (Homo sapiens, UniProt O60840+Q01668+Q13698+Q13936). Nature of the data set: Inhibition of L-type calcium channel (unknown origin) at 10 uM by patch clamp assay relative to control. In general terms: In patch-clamp work, channel activity is measured electrically.
The target in another data set is Nav1.5 (Homo sapiens, UniProt Q14524). Description: Inhibition of human Nav1.5 at 10 uM by patch clamp assay relative to control.
Data set [8] in a line: Total AUC in Sprague-Dawley rat at 1 mg/kg, iv. The format is ADME, organism-based. As to conditions: in vivo.
The next data set has as its target Cytochrome P450 3A4 (Homo sapiens, UniProt P08684). Description: Inhibition of CYP3A4 (unknown origin).
In another data set the target is Cytochrome P450 2D6 (Homo sapiens, UniProt P10635). Nature of the data set: Inhibition of CYP2D6 (unknown origin).
The target of a further data set is hERG (Homo sapiens, UniProt Q12809). Description: Inhibition of hERG (unknown origin) at 30 uM by patch clamp assay relative to control.

In brackets after ≈: the same amount, converted by molar mass.

These results are taken from ChEMBL document CHEMBL6182920, “The Discovery of C7-Substituted Norbornyl Bisamides as RXFP1 Small Molecule Agonists” (J Med Chem, 2025).

Sequence of Cytochrome P450 3A4 (P08684 whole entry): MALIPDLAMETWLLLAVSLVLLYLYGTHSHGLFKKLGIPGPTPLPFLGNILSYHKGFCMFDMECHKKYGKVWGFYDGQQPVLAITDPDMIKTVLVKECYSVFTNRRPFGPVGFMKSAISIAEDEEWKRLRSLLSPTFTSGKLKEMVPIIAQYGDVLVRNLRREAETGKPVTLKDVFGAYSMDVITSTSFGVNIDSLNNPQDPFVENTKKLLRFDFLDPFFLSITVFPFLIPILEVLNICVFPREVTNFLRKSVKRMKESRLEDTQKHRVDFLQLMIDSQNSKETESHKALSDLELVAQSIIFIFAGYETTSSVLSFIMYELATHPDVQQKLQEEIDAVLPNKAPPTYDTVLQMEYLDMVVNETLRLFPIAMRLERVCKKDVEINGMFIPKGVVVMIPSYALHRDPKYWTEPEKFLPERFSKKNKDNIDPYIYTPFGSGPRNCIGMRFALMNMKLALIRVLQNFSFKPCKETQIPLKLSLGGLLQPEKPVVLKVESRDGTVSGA
Sequence of Cytochrome P450 2D6 (P10635 whole entry): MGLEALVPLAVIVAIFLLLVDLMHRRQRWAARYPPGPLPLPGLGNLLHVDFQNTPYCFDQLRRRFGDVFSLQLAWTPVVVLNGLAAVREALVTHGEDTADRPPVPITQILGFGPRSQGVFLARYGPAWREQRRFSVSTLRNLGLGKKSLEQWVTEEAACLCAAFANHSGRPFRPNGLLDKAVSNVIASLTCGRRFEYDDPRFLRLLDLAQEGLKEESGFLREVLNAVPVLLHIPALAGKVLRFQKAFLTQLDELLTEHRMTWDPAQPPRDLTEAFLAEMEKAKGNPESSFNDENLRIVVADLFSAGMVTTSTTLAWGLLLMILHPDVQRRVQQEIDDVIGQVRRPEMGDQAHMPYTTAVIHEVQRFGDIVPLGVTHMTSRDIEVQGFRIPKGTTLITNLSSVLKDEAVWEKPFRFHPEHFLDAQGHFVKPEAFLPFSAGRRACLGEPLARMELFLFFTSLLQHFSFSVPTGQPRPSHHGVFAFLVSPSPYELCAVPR
Sequence of Cytochrome P450 2C9 (P11712 whole entry): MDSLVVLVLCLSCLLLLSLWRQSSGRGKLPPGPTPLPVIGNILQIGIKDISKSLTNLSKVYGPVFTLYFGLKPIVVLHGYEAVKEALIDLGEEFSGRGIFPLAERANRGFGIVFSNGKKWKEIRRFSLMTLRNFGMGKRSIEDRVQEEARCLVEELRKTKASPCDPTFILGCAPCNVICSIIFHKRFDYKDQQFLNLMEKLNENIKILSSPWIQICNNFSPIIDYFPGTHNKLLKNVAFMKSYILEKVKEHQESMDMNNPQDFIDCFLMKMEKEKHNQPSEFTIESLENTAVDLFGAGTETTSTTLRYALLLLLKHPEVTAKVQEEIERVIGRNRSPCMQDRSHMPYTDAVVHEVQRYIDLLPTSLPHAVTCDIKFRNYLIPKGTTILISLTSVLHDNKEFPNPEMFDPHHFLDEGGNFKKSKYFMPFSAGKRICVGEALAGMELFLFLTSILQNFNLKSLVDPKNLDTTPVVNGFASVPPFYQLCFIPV
Sequence of Nav1.5 (Q14524 whole entry): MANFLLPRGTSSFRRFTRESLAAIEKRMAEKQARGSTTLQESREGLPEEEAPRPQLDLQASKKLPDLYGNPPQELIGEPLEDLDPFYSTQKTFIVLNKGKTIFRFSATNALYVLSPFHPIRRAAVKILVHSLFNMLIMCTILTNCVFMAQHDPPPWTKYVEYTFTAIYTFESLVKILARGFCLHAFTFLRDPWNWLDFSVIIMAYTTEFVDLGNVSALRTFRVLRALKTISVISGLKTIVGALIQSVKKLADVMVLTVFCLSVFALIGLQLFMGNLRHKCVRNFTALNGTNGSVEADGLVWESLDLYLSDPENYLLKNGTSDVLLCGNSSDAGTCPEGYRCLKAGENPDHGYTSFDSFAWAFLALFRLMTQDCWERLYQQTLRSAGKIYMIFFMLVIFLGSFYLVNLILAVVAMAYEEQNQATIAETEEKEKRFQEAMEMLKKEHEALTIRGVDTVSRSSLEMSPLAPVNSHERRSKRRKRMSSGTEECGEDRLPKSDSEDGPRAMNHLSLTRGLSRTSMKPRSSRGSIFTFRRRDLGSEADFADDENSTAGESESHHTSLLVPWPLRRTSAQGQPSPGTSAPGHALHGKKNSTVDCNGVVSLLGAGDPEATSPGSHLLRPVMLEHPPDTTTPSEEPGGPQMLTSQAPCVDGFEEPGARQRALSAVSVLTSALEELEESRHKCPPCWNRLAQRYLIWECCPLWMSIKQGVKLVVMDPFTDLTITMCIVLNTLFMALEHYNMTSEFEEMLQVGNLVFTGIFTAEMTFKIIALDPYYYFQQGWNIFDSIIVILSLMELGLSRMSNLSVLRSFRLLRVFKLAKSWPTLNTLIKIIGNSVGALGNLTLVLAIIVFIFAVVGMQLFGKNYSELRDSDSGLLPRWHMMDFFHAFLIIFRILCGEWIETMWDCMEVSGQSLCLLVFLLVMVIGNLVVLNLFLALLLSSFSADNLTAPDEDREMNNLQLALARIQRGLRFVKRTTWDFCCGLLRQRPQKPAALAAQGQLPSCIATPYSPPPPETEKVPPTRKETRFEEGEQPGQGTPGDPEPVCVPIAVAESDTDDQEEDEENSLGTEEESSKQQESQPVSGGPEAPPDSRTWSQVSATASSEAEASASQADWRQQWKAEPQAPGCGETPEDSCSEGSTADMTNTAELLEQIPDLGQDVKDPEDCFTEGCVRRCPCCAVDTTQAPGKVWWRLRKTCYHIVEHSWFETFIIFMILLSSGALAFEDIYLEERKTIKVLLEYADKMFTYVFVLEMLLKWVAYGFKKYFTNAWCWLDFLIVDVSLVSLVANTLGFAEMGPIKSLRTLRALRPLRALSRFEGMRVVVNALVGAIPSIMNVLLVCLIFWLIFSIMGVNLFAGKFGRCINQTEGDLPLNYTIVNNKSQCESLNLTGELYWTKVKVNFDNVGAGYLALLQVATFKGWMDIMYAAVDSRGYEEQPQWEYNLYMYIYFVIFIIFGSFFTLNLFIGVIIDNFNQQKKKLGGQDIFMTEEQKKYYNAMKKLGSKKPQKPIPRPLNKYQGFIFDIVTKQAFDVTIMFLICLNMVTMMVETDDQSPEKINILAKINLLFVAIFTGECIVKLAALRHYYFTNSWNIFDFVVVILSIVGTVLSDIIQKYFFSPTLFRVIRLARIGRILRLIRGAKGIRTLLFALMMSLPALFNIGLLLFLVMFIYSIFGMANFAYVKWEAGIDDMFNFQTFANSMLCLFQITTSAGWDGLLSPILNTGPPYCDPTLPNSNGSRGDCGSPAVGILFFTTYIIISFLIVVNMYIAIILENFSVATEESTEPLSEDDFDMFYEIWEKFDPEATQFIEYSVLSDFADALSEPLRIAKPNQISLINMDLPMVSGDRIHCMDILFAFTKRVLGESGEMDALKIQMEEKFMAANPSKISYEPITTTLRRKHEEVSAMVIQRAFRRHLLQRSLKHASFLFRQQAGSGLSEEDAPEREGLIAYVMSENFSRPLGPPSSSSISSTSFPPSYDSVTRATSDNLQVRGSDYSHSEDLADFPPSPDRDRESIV
Sequence of hERG (Q12809 whole entry): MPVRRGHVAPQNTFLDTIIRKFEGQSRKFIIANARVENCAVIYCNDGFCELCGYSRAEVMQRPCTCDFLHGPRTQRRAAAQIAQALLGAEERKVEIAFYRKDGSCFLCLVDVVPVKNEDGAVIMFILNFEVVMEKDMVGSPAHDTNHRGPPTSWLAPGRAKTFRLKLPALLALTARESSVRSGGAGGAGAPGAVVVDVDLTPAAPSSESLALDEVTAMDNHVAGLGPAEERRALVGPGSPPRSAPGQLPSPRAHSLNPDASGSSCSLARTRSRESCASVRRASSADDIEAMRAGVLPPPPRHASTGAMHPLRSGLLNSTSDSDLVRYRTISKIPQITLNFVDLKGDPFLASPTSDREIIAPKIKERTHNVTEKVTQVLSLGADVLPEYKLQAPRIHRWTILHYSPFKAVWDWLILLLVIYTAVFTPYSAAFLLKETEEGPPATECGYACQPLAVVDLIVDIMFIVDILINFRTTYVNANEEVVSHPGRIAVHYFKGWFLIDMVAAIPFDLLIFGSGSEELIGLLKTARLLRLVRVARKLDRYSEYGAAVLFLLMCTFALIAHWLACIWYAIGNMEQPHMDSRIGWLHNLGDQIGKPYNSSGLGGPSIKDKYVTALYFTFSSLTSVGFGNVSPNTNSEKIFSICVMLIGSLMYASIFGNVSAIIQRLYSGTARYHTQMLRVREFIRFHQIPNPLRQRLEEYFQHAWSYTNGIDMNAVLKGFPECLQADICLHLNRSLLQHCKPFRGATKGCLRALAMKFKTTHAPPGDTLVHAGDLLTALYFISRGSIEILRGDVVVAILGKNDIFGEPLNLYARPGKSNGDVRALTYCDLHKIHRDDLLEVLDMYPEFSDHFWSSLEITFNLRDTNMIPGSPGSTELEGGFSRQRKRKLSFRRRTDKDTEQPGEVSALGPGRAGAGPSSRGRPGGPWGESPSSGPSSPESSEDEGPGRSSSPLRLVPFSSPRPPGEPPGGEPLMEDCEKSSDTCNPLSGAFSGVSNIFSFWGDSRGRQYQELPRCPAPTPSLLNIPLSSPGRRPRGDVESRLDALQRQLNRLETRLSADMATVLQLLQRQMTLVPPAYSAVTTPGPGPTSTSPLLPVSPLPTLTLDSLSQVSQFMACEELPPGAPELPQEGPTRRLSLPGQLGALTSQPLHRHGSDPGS

As usually defined, the IC50 is the point on the concentration scale where inhibition reaches its midpoint. By clearance is commonly meant the rate of elimination divided by the concentration. A high value points to a high capacity for elimination. Usually EC50 stands for the concentration giving half of the maximal effect. A word on the half-life: it is the time needed for the level to fall by half in the phase considered. One may read the inhibition as the percentage by which the read-out fell short of the control. The term AUC denotes concentration integrated over time. In the case of `CNC(=O)OC(C(=O)O)c1ccc(F)c(-c2ccc(OC)c(C(=O)N[C@H]3[C@@H](C(=O)Nc4ccc(F)c(C(F)(F)F)c4)[C@H]4CC[C@@H]3/C4=C\C3CC3)c2)c1` (stereo in doubt; 39), the concentration for half-maximal inhibition (IC50) on Cytochrome P450 1A2 was 4.6 µM; against Cytochrome P450 2C19, 17 µM; against Cytochrome P450 2C9, 4 µM; on Cytochrome P450 3A4, > 20 µM; against Cytochrome P450 2D6, > 20 µM. This molecule yielded a clearance in data set [1] of 2.5 mL/min/kg. Besides, the concentration for a half-maximal effect (EC50) on Relaxin receptor 1 is 0.045 µM; in data set [7], > 50 µM. For the same molecule, the solubility thermodynamic in data set [2] came out at 130 µg/mL (≈ 179 µM). Further, the half-life in [3] was > 2 h; in [4] it was > 2 h; in [5] it was 4.43 h. In addition, the results for the Activity with Rattus norvegicus and in the data set with Mus musculus were 25% and 500.4%, respectively. Besides, the Vd in data set [6] was 0.09 L/kg. In addition, the values for the inhibition at 10 µM on L-type calcium channel and against Nav1.5 were 33% and 59%, respectively. Further, the AUC in data set [8] was determined as 9.6 µM·h. The inhibition at 30 µM against hERG was 7%.
